11 compounds from PubChem BioAssay (NCI) can be followed below.

Among the test systems are SNB-78 CNS; HL-60(TB) leukemia; MDA-MB-231 breast; KM20L2 colon; RXF-631 renal; MCF7 breast; DMS 114 small cell lung; HS 578T breast; NCI/ADR-RES ovarian; DMS 273 small cell lung.
Holding throughout (assay): DTP human tumour cell line panel, 48 h

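Step 1: Grow cells in 96-well plates. Step 2: Expose to compound for 48 hours at 5 concentrations. Step 3: Interpolate endpoints linearly; if unreached, use highest concentration. GI50 marks 50% less growth. TGI is the concentration that stops growth completely.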

For `CN(C)C(=S)SN(C)C(=O)Nc1ccccc1`, the TGI in the assay with SNB-78 CNS was over 100 µM; with HL-60(TB) leukemia it was over 71.7 µM; in the assay on MDA-MB-231 breast it was over 100 µM; in the assay with KM20L2 colon, over 100 µM; with RXF-631 renal, over 100 µM; with MCF7 breast, over 47.1 µM. The TGI in the assay on DMS 114 small cell lung was 27.4 µM; with HS 578T breast, over 100 µM; in the assay on NCI/ADR-RES ovarian, 11.1 µM; with DMS 273 small cell lung it was 77.6 µM.

As for `NCCCNCCSSCCCCS(=O)O`, the TGI in the assay with SNB-78 CNS was over 100 µM; with HL-60(TB) leukemia, 40.7 µM; in the assay with KM20L2 colon, over 100 µM; in the assay with RXF-631 renal, over 100 µM; in the assay with DMS 114 small cell lung it was over 100 µM; with DMS 273 small cell lung, over 100 µM.

Take `CC(=O)c1ccc(NC(=O)/C(Cc2ccccn2)=N/NC(=O)C[N+](C)(C)C)cc1`: the TGI in the assay with SNB-78 CNS, with HL-60(TB) leukemia, in the assay with KM20L2 colon, in the assay with RXF-631 renal, in the assay with DMS 114 small cell lung and in the assay with DMS 273 small cell lung was over 100 µM in each case.

Take `CCc1cccc(C)c1NC(C)=O`: the TGI with SNB-78 CNS, in the assay on HL-60(TB) leukemia, in the assay with KM20L2 colon, with RXF-631 renal, in the assay with DMS 114 small cell lung and in the assay with DMS 273 small cell lung was over 100 µM in each case.

With `CCCCCCCCCCCCCCCCOP(=O)(O)Oc1ccc(/C=C\c2ccc(OP(=O)(O)OCCCCCCCCCCCCCCCC)cc2)cc1`, the TGI with SNB-78 CNS is 91.9 µM; in the assay on HL-60(TB) leukemia, 53.1 µM; in the assay on KM20L2 colon it was over 100 µM; with RXF-631 renal it was over 100 µM; in the assay on DMS 114 small cell lung, 49.4 µM; with DMS 273 small cell lung it was 62.4 µM.

As for `N#Cc1cnsc1`, the TGI in the assay on SNB-78 CNS, with HL-60(TB) leukemia, in the assay on KM20L2 colon, in the assay on RXF-631 renal, in the assay on DMS 114 small cell lung and in the assay with DMS 273 small cell lung was over 100 µM throughout.

As to `N#CCCN(CCC#N)c1ccc(C(=O)NN)cc1`, the TGI in the assay with SNB-78 CNS, in the assay on HL-60(TB) leukemia, in the assay on KM20L2 colon, with RXF-631 renal, with DMS 114 small cell lung and in the assay with DMS 273 small cell lung was over 100 µM throughout.

As to `COC(=O)c1cc2c(c(C(=O)OC)c1O)C(=O)C=CC2=O`, the GI50 in the assay on SNB-78 CNS, with KM20L2 colon, in the assay with RXF-631 renal, with DMS 114 small cell lung and in the assay on DMS 273 small cell lung was over 9.1 µM in each case. Moreover, the TGI was over 66.8 µM in the assay with SNB-78 CNS; over 24.4 µM in the assay on HL-60(TB) leukemia; over 56.4 µM in the assay on KM20L2 colon; over 71.2 µM in the assay with RXF-631 renal; over 78.8 µM in the assay with DMS 114 small cell lung; over 71.6 µM in the assay on DMS 273 small cell lung.

Take `CCC1(O)C(=O)OCc2c1cc1n(c2=O)Cc2cc3c(N)cccc3nc2-1` (centres undefined): the TGI with SNB-78 CNS was over 51.7 µM; in the assay on HL-60(TB) leukemia, 0.111 µM; with MDA-MB-231 breast, 14.2 µM; in the assay with KM20L2 colon, 20.5 µM; in the assay with RXF-631 renal, 1.62 µM; with MCF7 breast, over 39.7 µM. The TGI with DMS 114 small cell lung was 0.504 µM; in the assay on HS 578T breast it was 22.8 µM; in the assay on NCI/ADR-RES ovarian, 0.228 µM; in the assay with DMS 273 small cell lung it was 0.209 µM.

Turning to `CC(C)=CC(=O)N1CCN(C(=O)C=C(C)C)CC1`, the TGI with SNB-78 CNS, in the assay on HL-60(TB) leukemia, in the assay on KM20L2 colon, with RXF-631 renal, with DMS 114 small cell lung and with DMS 273 small cell lung was over 100 µM each time.

In the case of `O=C(CC(=O)N1N=C(c2ccccc2)C(N=Nc2ccc(Cl)cc2)C1=O)Nc1ccccc1Cl` (centres undefined), the TGI with SNB-78 CNS, in the assay on HL-60(TB) leukemia, in the assay with KM20L2 colon, with RXF-631 renal, with DMS 114 small cell lung and with DMS 273 small cell lung was over 100 µM each time.

For orientation: TGI means the concentration at which net growth stops. Low readings indicate greater sensitivity of the cells, high ones lower sensitivity of the cells. The GI50 is the concentration that inhibits growth by half.
